Test results from patent US5292733A, “Cephalosporin compounds” (Lucky Limited, priority 1991, dated 1994).
≈ marks a conversion by molar mass, not a printed value.

Columns and labels:
Experiment in all cases: Antibacterial activity MIC, two-fold agar dilution
Format in all cases: cell-based
[1] = test system: Acinetobacter calcoaceticus ATCC 15473; conditions: ATCC15473; Acinetobacter calcoaceticus ATCC 15473; Muller-Hinton agar, 37° C., 20 hours; read-out: Antibacterial Activity MIC
Experimental: (§1) These MIC values were taken by employing a two-fold dilution method: that is, two-fold serial dilutions of each of the test compounds were made and dispersed in a Muller-Hinton agar medium; 2 μl of the standard test strain which had the 10^7 CFU(Colony Forming Unit) per ml was inoculated on the medium; and these were incubated at 37° C. for 20 hours. The results of the MIC tests are shown Table 1.

[2] = test system: Bacillus cereus ATCC 11778; conditions: ATCC11778; Bacillus cereus ATCC 11778; Muller-Hinton agar, 37° C., 20 hours; read-out: Antibacterial Activity MIC
Experimental: as §1

[3] = test system: Bacillus megaterium ATCC 9885; conditions: Priestia megaterium, ATCC9885; Bacillus megaterium ATCC 9885; Muller-Hinton agar, 37° C., 20 hours; read-out: Antibacterial Activity MIC
Experimental: as §1

[4] = test system: Citrobacter freundii ATCC 8090; conditions: ATCC8090; Citrobacter freundii ATCC 8090; Muller-Hinton agar, 37° C., 20 hours; read-out: Antibacterial Activity MIC
Experimental: as §1

[5] = test system: Enterobacter aerogenes ATCC 29751; conditions: Klebsiella aerogenes, ATCC29751; Enterobacter aerogenes ATCC 29751; Muller-Hinton agar, 37° C., 20 hours; read-out: Antibacterial Activity MIC
Experimental: as §1

[6] = test system: Enterobacter cloacae ATCC 27508; conditions: ATCC27508; Enterobacter cloacae ATCC 27508; Muller-Hinton agar, 37° C., 20 hours; read-out: Antibacterial Activity MIC
Experimental: as §1

[7] = test system: Escherichia coli ATCC 10536; conditions: ATCC10536, Muller-Hinton agar, 37° C., 20 hours
Experimental: as §1

[8] = test system: Escherichia coli ATCC 25922; conditions: ATCC25922, Muller-Hinton agar, 37° C., 20 hours
Experimental: as §1

[9] = test system: Klebsiella pneumoniae ATCC 10031; conditions: ATCC10031; Klebsiella pneumoniae ATCC 10031; Muller-Hinton agar, 37° C., 20 hours; read-out: Antibacterial Activity MIC
Experimental: as §1

[10] = test system: Micrococcus luteus ATCC 9341; conditions: ATCC9341; Micrococcus luteus ATCC 9341; Muller-Hinton agar, 37° C., 20 hours; read-out: Antibacterial Activity MIC
Experimental: as §1

[11] = test system: Morganella morganii ATCC 8076h; conditions: ATCC8076H, Muller-Hinton agar, 37° C., 20 hours
Experimental: as §1

[12] = test system: Proteus mirabilis ATCC 25933; conditions: ATCC25933; Proteus mirabilis ATCC 25933; Muller-Hinton agar, 37° C., 20 hours; read-out: Antibacterial Activity MIC
Experimental: as §1

[13] = test system: Proteus vulgaris ATCC 6059; conditions: ATCC6059; Proteus vulgaris ATCC 6059; Muller-Hinton agar, 37° C., 20 hours; read-out: Antibacterial Activity MIC
Experimental: as §1

[14] = test system: Providencia rettgeri ATCC 9250; conditions: ATCC9250, Muller-Hinton agar, 37° C., 20 hours
Experimental: as §1

[15] = test system: Pseudomonas aeruginosa ATCC 10145; conditions: ATCC10145; Pseudomonas aeruginosa ATCC 10145; Muller-Hinton agar, 37° C., 20 hours; read-out: Antibacterial Activity MIC
Experimental: as §1

[16] = test system: Pseudomonas aeruginosa ATCC 25619; conditions: ATCC25619; Pseudomonas aeruginosa ATCC 25619; Muller-Hinton agar, 37° C., 20 hours; read-out: Antibacterial Activity MIC
Experimental: as §1

[17] = test system: Pseudomonas aeruginosa ATCC 27853; conditions: ATCC27853; Pseudomonas aeruginosa ATCC 27853; Muller-Hinton agar, 37° C., 20 hours; read-out: Antibacterial Activity MIC
Experimental: as §1

[18] = test system: Salmonella typhimurium ATCC 14028; conditions: Salmonella enterica; Salmonella typhimurium ATCC 14028; Muller-Hinton agar, 37° C., 20 hours; read-out: Antibacterial Activity MIC
Experimental: as §1

[19] = test system: Serratia marcescens ATCC 27117; conditions: ATCC27117; Serratia marcescens ATCC 27117; Muller-Hinton agar, 37° C., 20 hours; read-out: Antibacterial Activity MIC
Experimental: as §1

[20] = test system: Shigella flexneri ATCC 11836; conditions: ATCC11836, Muller-Hinton agar, 37° C., 20 hours
Experimental: as §1

[21] = test system: Shigella sonnei ATCC 11060; conditions: ATCC11060, Muller-Hinton agar, 37° C., 20 hours
Experimental: as §1

[22] = test system: Staphylococcus aureus ATCC 10537; conditions: ATCC10537; Staphylococcus aureus ATCC 10537; Muller-Hinton agar, 37° C., 20 hours; read-out: Antibacterial Activity MIC
Experimental: as §1

[23] = test system: Staphylococcus aureus ATCC 6538p; conditions: ATCC6538P; Staphylococcus aureus ATCC 6538p; Muller-Hinton agar, 37° C., 20 hours; read-out: Antibacterial Activity MIC
Experimental: as §1

[24] = test system: Staphylococcus epidermidis ATCC 12228; conditions: ATCC12228; Staphylococcus epidermidis ATCC 12228; Muller-Hinton agar, 37° C., 20 hours; read-out: Antibacterial Activity MIC
Experimental: as §1

[25] = test system: Streptococcus faecalis ATCC 29212; conditions: Enterococcus faecalis, ATCC29212; Streptococcus faecalis ATCC 29212; Muller-Hinton agar, 37° C., 20 hours; read-out: Antibacterial Activity MIC
Experimental: as §1

SMILES	MIC [1] [µg/mL]	MIC [2] [µg/mL]	MIC [3] [µg/mL]	MIC [4] [µg/mL]	MIC [5] [µg/mL]	MIC [6] [µg/mL]	MIC [7] [µg/mL]	MIC [8] [µg/mL]	MIC [9] [µg/mL]	MIC [10] [µg/mL]	MIC [11] [µg/mL]	MIC [12] [µg/mL]	MIC [13] [µg/mL]	MIC [14] [µg/mL]	MIC [15] [µg/mL]	MIC [16] [µg/mL]	MIC [17] [µg/mL]	MIC [18] [µg/mL]	MIC [19] [µg/mL]	MIC [20] [µg/mL]	further results
CO/N=C(\C(=O)N[C@@H]1C(=O)N2C(C(=O)[O-])=C(CSc3cc(N)nc(N)[n+]3C)CS[C@H]12)c1csc(N)n1 [Compound I-7, (6R,7R)-7-[(Z)-2-(2-aminothiazol-4-yl)-2-(methoxyimino)acetamido]-3-(2,6-diamino-3-methylpyrimidinium-4-yl)thiomethyl-3-cephem-4-carboxylate]	8 (≈ 14.5 µM)	64 (≈ 116 µM)	0.13 (≈ 0.236 µM)	0.25 (≈ 0.453 µM)	0.5 (≈ 0.906 µM)	0.016 (≈ 0.029 µM)	0.13 (≈ 0.236 µM)	0.13 (≈ 0.236 µM)	0.016 (≈ 0.029 µM)	0.063 (≈ 0.114 µM)	0.016 (≈ 0.029 µM)	0.031 (≈ 0.0562 µM)	0.063 (≈ 0.114 µM)	≤ 0.008	64 (≈ 116 µM)	2 (≈ 3.63 µM)	32 (≈ 58 µM)	1 (≈ 1.81 µM)	0.5 (≈ 0.906 µM)	0.063 (≈ 0.114 µM)	MIC [21]: 0.5 µg/mL (≈ 0.906 µM); MIC [22]: 1 µg/mL (≈ 1.81 µM); MIC [23]: 2 µg/mL (≈ 3.63 µM); MIC [24]: 0.5 µg/mL (≈ 0.906 µM); MIC [25]: > 128 µg/mL
C#CCO/N=C(\C(=O)N[C@@H]1C(=O)N2C(C(=O)[O-])=C(CSc3cc(N)[n+](C)c(N)n3)CS[C@H]12)c1csc(N)n1 [Compound I-14, (6R,7R)-7-[(Z)-2-(2-aminothiazol-4-yl)-2-(2-propyn-1-oxyimino)acetamido]-3-(2,6-diamino-1-methylpyrimidinium-4-yl)thiomethyl-3-cephem-4-carboxylate]	8 (≈ 13.9 µM)	64 (≈ 111 µM)	0.25 (≈ 0.434 µM)	0.25 (≈ 0.434 µM)	0.5 (≈ 0.869 µM)	0.016 (≈ 0.0278 µM)	0.5 (≈ 0.869 µM)	0.25 (≈ 0.434 µM)	0.016 (≈ 0.0278 µM)	0.031 (≈ 0.0539 µM)	0.016 (≈ 0.0278 µM)	1 (≈ 1.74 µM)	1 (≈ 1.74 µM)	≤ 0.008	8 (≈ 13.9 µM)	1 (≈ 1.74 µM)	4 (≈ 6.95 µM)	0.25 (≈ 0.434 µM)	0.5 (≈ 0.869 µM)	0.063 (≈ 0.109 µM)	MIC [21]: 0.5 µg/mL (≈ 0.869 µM); MIC [22]: 0.5 µg/mL (≈ 0.869 µM); MIC [23]: 0.5 µg/mL (≈ 0.869 µM); MIC [24]: 0.25 µg/mL (≈ 0.434 µM); MIC [25]: 16 µg/mL (≈ 27.8 µM)
CC[n+]1c(N)nc(N)nc1SCC1=C(C(=O)[O-])N2C(=O)C(NC(=O)/C(=N\OC(C)(C)C(=O)O)c3csc(N)n3)[C@H]2SC1 (stereo partly drawn) [Compound I-24, 7-[(Z)-2-(2-aminothiazol-4-yl) -2-(2-carboxyprop-2-oxyimino)acetamido]-3-(4,6-diamino-1-ethyl-1,3,5-triazinium-2-yl)thiomethyl-3-cephem-4-carboxylate]	4 (≈ 6.26 µM)	> 128	0.5 (≈ 0.783 µM)	0.13 (≈ 0.204 µM)	2 (≈ 3.13 µM)	0.031 (≈ 0.0485 µM)	0.13 (≈ 0.204 µM)	0.063 (≈ 0.0986 µM)	0.063 (≈ 0.0986 µM)	1 (≈ 1.57 µM)	≤ 0.008	0.063 (≈ 0.0986 µM)	0.063 (≈ 0.0986 µM)	≤ 0.008	2 (≈ 3.13 µM)	1 (≈ 1.57 µM)	1 (≈ 1.57 µM)	0.13 (≈ 0.204 µM)	0.13 (≈ 0.204 µM)	0.063 (≈ 0.0986 µM)	MIC [21]: 0.063 µg/mL (≈ 0.0986 µM); MIC [22]: 2 µg/mL (≈ 3.13 µM); MIC [23]: 4 µg/mL (≈ 6.26 µM); MIC [24]: 2 µg/mL (≈ 3.13 µM); MIC [25]: > 128 µg/mL
